In experiment [1] the test system is PMA-stimulated KL2 release from HEK-293 cells (iRhom2/ADAM17 selective substrate). The experiment can be described thus: Secondary screen (Example 3b): PMA-stimulated KL2 release from HEK-293 cells, AP readout. It is filed as cell-based. As to conditions: Homo sapiens, HEK293, HEK-293 cells expressing KL2-AP, PMA 100 ng/mL, 2 h, read-out: Secondary Screen IC50 KitL2. How it is done:
(§1) Two separate screens to identify novel small molecule inhibitors of iRhom2/ADAM17 activity were developed. […] Therefore, the primary screen for small molecule inhibitors of iRhom2/ADAM17 was a screen for inhibitors that blocked the release of TNFα from LPS-stimulated THP-1 human myeloid cells, a process that depends on iRhom2 and ADAM17. Since the release of TNFα from THP-1 cells can be blocked at many stages of the LPS/TLR4/iRhom2/ADAM17 pathway, a secondary screen was performed for another iRhom2/ADAM17 selective substrate, Kit-ligand 2 (KL-2) (Maretzky T et al. (July 2013), “iRhom2 controls the substrate selectivity of stimulated ADAM17-dependent ectodomain shedding”, PNAS 110(28): 11433-11438) in a different human cell type, human embryonic kidney cells (HEK 293).
Expression plasmids for alkaline phosphatase (AP)-fused human KL2 and TGFα had been previously designed and generated through gene synthesis followed by subcloning into the pcDNA3.1(+)/Hygro expression vector. […] Subsequently, DNA amplifications were performed to obtain sufficient amounts of the expression vectors. The quality of DNA and gene sequences were confirmed through restriction digest and Sanger sequencing. In parallel, cell culture of HEK-293 cells was initiated. Master and working cell banks were prepared, scaled up and transfected with the respective constructs by electroporation. During cell culturing, cell density and viability were monitored to ensure optimal conditions for the transfections. After PMA stimulation, AP-coupled KL2 or TGFα were detected by measurement of AP activity in the supernatant.
After electroporation, cells were further cultured in presence of selection antibiotics, hygromycin B, to generate stably transfected polyclonal cell pools. For both assays, KL2 and TGFα shedding, the respective selected pool turned out to be suitable. Final assay conditions were determined for the selected pools. For all experiments, batimastat (BB94, 10 μM) was used as positive control for full inhibition of KL2 or TGFα shedding.
The wells of sterile 384-well flat bottom clear plates for KL2-AP assays were coated with 10 μL of 0.1 mg/mL poly-d-lysine for 3-4 hr at 25° C. or overnight at 4° C., then washed 2× with PBS and patted dry. 60 μL of cells (40,000/well) were added to the sterile 384-well plate and incubated in Optimem (with 2% FCS and 1% Pen-strep) overnight at 37° C. (5% CO2). After incubation overnight, 55 μL medium were removed with a BioTek EL406 and 10 μL of prediluted compounds were added to the cells for a final concentration of 20 μM. After incubation for 15 min, 15 μL of PMA (100 ng/mL final conc.) were added. The cells were incubated for 2 h at 37° C. (5% CO2). Then, the plates were centrifuged for 5 min at 1000 rpm and 3 μL of the supernatant was transferred to a fresh 384 well plate and 9 μL of AP Balance Buffer was added per well. 12 μL of pNPP p-nitrophenyl phosphate (final 1 M pNPP) was added. AP reaction was performed for 1 h at 37° C. The reaction was stopped by addition of 12 μL of NaOH (1 M final conc.), the plates were centrifuged to remove air bubbles and the absorbance of pNP was measured at 405 nm.

The test system of experiment [2] is TNFα release from LPS-stimulated THP-1 cells (iRhom2/ADAM17-dependent). The experiment can be described thus: Primary screen (Example 1b): LPS-stimulated TNFα release from THP-1 cells, HTRF. It counts as cell-based. As to conditions: Homo sapiens, overnight pre-incubation, LPS 100 ng/mL, 3 h, normalized against 10 μM Batimastat. How it is done:
as §1
THP-1 cells were plated in low volume 384 wells (10,000 cells per well in 12.6 μL RPMI medium) together with inhibitors or 10 μM BB94 and incubated over night. The next day, TNFα shedding was initiated by stimulation of THP-1 cells with 100 ng/mL LPS (1.8 μL of an 800 ng/mL LPS stock) for 3 hrs at 37° C. The extent of released TNFα was detected with the corresponding HTRF antibodies labeled with europium cryptate (donor) and d2 (acceptor). The HTRF signal was generated by proximity of europium cryptate and d2. All detection reagents were purchased from Cisbio. TNFα detection was performed according to the manufacturer's protocol (Product Insert for Cisbio TNFα (h) Kit Part #62HTNFAPEG & 62HTNFAPEH; https://www.cisbio.com/media/asset/c/i/cisbio_dd_pi_62htnfapeg-62htnfapeh.pdf, accessed Sep. 28, 2020).
Low volume 384 well plates were pre-coated with small molecule library compounds for a final concentration of 20 μM in a 15 μL reaction, or 0.75 μL of 200 μM stock of BB94 in 5% DMSO (final concentration 0.25%). 12.6 μL of cell suspension [8E5/mL; 10,000 cells/well; culture RPMI medium] and pre-incubated at 37° C., 5% CO2, over night. The next day, 1.8 μL of an 800 ng/mL LPS stock was added [final concentration 100 ng/mL in 15 μL assay] and the cells were incubated at 37° C., 5% CO2, for 3 h. Subsequently, 3 μL of the HTRF-mix [used at 1:3 dilution of cisbio HTRF human TNF] was added and the plates were incubated for an additional 2 hrs at 25° C. After an incubation at room temperature for 2 h, the HTRF readout was performed. Then data evaluation for normalization against the 10 μM Batimastat control (=100% […]) was applied.

pIC50: −log10 of the molar value. Bounds are passed on as bounds.

A word on the pIC50: it is the negative decadic logarithm of the IC50, by convention in mol/L.

`O=C(c1c(Cl)cccc1Cl)N1CCC(Cc2ccc(F)cc2)CC1` [Compound 3]: the pIC50 is under 4.40 in experiment [1] and over 7.20 in experiment [2].
As for `Cc1c(C(=O)NCc2cccs2)sc(=O)n1Cc1ccccc1` [Compound 4], the results for the pIC50 in experiment [1] and in experiment [2] were under 4.40 and 5.12, respectively.
Consider `Cc1c(C(=O)NCc2cccs2)sc(=O)n1Cc1ccccc1F` [Compound 5], for which the values for the pIC50 in experiment [1] and in experiment [2] were under 4.40 and 5.28, respectively.
For `Cc1c(C(=O)NCc2ccco2)sc(=O)n1Cc1ccccc1F` [Compound 7], the results for the pIC50 in experiment [1] and in experiment [2] were 4.66 and 5.41, respectively.

Values taken from US20260242359A1, “IRHOM2 INHIBITORS AND USES THEREOF” (NEW YORK SOCIETY FOR THE RELIEF OF THE RUPTURED AND …, priority 2023, published 2026).
